The kinase profiling compilation of Christmann-Franck et al. (2016)

Experiments:
Test in all cases: KINOMEscan competition binding
Conditions in all cases: compound 10.0 µM
CAMK2A (human) = CAMK2A (human) (UniProt Q9UQM7)
CAMK2B (human) = CAMK2B (human) (UniProt Q13554)
CDKL2 (human) = CDKL2 (human) (UniProt Q92772)
CHEK2 (human) = CHEK2 (human) (UniProt O96017)
CLK2 (human) = CLK2 (human) (UniProt P49760)
CSNK2A2 (human) = CSNK2A2 (human) (UniProt P19784)
DAPK3 (human) = DAPK3 (human) (UniProt O43293)
DAPK3 (human), sequence (O43293 whole entry, looked up): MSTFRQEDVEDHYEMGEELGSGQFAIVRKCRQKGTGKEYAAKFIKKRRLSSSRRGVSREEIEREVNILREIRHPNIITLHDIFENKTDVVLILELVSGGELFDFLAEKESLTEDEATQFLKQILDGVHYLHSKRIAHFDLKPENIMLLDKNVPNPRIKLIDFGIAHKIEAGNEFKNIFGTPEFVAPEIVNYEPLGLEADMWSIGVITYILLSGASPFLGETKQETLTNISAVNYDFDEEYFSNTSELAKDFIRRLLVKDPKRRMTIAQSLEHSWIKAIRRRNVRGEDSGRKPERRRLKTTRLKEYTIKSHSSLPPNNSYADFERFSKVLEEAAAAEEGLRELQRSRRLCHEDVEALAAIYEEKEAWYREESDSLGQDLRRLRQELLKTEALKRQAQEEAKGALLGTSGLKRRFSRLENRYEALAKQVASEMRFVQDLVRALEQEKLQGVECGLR

[1] = tested on: EGFR (human), P00533 [P753S; 747-752 del]
EPHA3 (human) = EPHA3 (human) (UniProt P29320)
FGFR1 (human) = FGFR1 (human) (UniProt P11362)
[2] = tested on: FGFR3 (human), P22607 [G697C]
GRK1 (human) = GRK1 (human) (UniProt Q15835)
GSK3A (human) = GSK3A (human) (UniProt P49840)
GSK3A (human), sequence (P49840 whole entry, looked up): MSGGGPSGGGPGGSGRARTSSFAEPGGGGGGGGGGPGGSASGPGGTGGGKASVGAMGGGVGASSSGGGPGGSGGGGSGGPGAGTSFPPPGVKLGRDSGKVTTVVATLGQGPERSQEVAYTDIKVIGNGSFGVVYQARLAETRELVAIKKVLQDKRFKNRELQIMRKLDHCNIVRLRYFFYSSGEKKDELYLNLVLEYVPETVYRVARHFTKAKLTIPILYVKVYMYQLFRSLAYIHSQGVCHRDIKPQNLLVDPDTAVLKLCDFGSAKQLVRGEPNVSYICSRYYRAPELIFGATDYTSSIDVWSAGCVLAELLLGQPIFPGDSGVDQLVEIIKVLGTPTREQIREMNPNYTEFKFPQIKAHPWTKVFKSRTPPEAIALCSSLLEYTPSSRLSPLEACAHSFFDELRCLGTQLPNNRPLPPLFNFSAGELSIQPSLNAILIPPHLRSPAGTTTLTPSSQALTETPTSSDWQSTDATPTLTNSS

INSR (human) = INSR (human) (UniProt P06213)
KIT (human) = KIT (human) (UniProt P10721)
MAK (human) = MAK (human) (UniProt P20794)
MAK (human), sequence (P20794 whole entry, looked up): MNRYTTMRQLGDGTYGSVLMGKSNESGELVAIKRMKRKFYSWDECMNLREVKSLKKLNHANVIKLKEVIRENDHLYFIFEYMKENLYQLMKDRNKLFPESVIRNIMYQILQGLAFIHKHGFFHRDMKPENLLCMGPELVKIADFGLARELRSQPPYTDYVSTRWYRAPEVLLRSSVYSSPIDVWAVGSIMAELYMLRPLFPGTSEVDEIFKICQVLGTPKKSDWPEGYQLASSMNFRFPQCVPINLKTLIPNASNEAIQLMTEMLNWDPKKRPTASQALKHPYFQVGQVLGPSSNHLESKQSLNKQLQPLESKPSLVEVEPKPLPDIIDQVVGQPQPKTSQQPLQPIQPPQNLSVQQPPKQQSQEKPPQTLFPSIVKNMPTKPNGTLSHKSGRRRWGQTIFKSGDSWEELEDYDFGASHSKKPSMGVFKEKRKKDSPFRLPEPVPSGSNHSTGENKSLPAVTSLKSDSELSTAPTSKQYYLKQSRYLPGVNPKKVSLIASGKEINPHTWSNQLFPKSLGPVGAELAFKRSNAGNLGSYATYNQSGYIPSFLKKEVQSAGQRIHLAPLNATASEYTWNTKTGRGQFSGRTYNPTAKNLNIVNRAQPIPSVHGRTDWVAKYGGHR

MAP3K13 (human) = MAP3K13 (human) (UniProt O43283)
MAP3K13 (human), sequence (O43283 whole entry, looked up): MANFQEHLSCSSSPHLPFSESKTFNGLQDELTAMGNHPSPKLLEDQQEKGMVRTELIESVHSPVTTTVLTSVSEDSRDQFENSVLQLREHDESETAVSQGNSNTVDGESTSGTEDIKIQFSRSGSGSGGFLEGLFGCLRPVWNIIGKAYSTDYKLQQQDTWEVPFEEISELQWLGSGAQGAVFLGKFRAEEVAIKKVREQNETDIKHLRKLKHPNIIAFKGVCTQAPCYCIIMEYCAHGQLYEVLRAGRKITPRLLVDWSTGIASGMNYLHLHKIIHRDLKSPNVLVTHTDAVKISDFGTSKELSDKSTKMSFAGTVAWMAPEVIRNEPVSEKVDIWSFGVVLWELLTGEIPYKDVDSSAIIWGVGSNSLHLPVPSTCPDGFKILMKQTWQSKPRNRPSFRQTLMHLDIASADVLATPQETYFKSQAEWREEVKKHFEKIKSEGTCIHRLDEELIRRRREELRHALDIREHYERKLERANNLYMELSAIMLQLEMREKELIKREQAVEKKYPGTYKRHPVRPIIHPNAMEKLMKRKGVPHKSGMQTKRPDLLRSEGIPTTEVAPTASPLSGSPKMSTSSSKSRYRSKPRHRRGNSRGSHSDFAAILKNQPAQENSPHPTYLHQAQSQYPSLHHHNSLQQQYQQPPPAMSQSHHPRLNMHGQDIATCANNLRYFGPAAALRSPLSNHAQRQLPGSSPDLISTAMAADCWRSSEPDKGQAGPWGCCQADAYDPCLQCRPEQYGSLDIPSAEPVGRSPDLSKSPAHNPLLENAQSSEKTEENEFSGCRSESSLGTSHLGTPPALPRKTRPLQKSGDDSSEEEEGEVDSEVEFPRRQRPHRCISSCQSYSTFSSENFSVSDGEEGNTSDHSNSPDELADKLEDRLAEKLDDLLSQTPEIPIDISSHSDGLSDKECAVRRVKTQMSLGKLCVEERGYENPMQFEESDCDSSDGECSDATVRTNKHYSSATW

MAP3K15 (human) = MAP3K15 (human) (UniProt Q6ZN16)
MAP3K2 (human) = MAP3K2 (human) (UniProt Q9Y2U5)
MAP3K5 (human) = MAP3K5 (human) (UniProt Q99683)
MAPK14 (human) = MAPK14 (human) (UniProt Q16539)
MAPK7 (human) = MAPK7 (human) (UniProt Q13164)
MAPK8 (human) = MAPK8 (human) (UniProt P45983)
MST1R (human) = MST1R (human) (UniProt Q04912)
MTOR (human) = MTOR (human) (UniProt P42345)
MYLK2 (human) = MYLK2 (human) (UniProt Q9H1R3)
MYLK2 (human), sequence (Q9H1R3 whole entry, looked up): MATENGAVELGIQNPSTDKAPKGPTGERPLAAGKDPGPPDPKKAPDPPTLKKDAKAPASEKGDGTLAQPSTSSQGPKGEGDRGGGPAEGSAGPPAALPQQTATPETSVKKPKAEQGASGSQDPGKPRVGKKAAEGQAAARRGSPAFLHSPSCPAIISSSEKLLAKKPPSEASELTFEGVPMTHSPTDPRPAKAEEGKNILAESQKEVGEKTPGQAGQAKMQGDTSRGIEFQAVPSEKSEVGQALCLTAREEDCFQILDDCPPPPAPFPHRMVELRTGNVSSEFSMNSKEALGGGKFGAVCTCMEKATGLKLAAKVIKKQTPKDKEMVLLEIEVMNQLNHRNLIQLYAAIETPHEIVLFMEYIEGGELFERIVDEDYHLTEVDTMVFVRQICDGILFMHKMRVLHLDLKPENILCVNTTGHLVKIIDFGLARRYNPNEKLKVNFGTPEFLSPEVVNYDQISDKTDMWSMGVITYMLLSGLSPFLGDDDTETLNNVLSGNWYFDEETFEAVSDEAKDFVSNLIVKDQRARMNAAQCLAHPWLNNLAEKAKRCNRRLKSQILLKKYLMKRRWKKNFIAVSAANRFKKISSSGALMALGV

NUAK2 (human) = NUAK2 (human) (UniProt Q9H093)
PRKD2 (human) = PRKD2 (human) (UniProt Q9BZL6)
PRKD2 (human), sequence (Q9BZL6 whole entry, looked up): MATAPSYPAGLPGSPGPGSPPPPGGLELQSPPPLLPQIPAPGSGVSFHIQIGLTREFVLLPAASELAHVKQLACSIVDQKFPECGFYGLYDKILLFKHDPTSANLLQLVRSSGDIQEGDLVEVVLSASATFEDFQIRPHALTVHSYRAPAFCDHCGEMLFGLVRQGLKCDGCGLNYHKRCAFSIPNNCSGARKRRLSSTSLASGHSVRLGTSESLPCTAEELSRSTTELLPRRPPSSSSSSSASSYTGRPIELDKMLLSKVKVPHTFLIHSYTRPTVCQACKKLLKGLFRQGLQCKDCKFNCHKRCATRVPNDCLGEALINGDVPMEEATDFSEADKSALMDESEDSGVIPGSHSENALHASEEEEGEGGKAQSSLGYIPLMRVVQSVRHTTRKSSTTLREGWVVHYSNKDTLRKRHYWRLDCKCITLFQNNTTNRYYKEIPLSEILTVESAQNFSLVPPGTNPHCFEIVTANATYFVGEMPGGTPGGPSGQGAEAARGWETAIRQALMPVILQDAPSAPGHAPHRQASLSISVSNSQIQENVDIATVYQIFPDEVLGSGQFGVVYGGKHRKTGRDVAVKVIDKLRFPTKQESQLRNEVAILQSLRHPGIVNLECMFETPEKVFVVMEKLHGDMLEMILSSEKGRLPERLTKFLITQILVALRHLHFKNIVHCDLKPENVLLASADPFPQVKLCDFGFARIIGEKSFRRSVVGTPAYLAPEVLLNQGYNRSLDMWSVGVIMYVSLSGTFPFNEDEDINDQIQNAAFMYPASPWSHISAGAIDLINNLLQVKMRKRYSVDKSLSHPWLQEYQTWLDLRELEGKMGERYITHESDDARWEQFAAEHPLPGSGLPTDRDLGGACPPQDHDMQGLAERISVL

PRKD3 (human) = PRKD3 (human) (UniProt O94806)
PRKX (human) = PRKX (human) (UniProt P51817)
PTK2B (human) = PTK2B (human) (UniProt Q14289)
RPS6KA4 KD1 (human) = RPS6KA4 KD1 (human) (UniProt O75676)
RPS6KB1 (human) = RPS6KB1 (human) (UniProt P23443)
RPS6KB1 (human), sequence (P23443 whole entry, looked up): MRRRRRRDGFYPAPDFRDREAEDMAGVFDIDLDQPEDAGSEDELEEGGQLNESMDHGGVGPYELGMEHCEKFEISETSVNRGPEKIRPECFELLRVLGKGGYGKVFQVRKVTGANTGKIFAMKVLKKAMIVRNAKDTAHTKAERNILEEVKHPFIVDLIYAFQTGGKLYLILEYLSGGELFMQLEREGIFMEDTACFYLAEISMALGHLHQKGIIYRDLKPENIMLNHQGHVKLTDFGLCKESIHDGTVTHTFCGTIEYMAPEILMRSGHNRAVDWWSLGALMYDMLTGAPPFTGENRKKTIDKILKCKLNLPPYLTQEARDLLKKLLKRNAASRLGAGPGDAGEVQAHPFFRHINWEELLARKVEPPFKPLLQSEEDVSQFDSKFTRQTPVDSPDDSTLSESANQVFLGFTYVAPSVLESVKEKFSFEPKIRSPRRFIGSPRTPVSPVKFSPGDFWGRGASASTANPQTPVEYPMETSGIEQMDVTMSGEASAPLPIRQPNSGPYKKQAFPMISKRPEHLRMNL

SRPK2 (human) = SRPK2 (human) (UniProt P78362)
STK11 (human) = STK11 (human) (UniProt Q15831)
STK33 (human) = STK33 (human) (UniProt Q9BYT3)
STK38 (human) = STK38 (human) (UniProt Q15208)
STK38L (human) = STK38L (human) (UniProt Q9Y2H1)
[3] = target: TYK2 JH2 pseudokinase (human) (UniProt P29597)
VRK2 (human) = VRK2 (human) (UniProt Q86Y07)
YSK4 (human) = YSK4 (human) (UniProt Q56UN5)

CDKL2 (human), sequence (Q92772 whole entry, looked up): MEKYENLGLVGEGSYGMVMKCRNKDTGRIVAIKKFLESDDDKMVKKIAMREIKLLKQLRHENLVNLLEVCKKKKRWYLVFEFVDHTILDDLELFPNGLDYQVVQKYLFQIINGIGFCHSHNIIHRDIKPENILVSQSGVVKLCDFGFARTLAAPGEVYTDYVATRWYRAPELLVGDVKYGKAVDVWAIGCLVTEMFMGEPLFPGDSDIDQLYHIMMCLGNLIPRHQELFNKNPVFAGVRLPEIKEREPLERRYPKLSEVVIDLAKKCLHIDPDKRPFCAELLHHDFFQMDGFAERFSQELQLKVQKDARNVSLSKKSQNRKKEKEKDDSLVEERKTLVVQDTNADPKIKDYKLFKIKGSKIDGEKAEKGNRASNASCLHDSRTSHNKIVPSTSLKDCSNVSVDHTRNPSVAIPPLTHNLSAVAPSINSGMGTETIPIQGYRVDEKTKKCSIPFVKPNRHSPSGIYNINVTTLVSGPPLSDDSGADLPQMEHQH

COc1cc(C(=O)N2CCC(N3CCN(C)CC3)CC2)ccc1Nc1ncc2c(n1)N(C)c1ccccc1C(=O)N2C
kinase still bound, per cent of control (CAMK2A (human)): 21%
kinase still bound, per cent of control (CAMK2B (human)): 62%
residual activity (CDKL2 (human)): 100%
kinase still bound, per cent of control (CHEK2 (human)): 66%
kinase still bound, per cent of control (CLK2 (human)): 72%
kinase still bound, per cent of control (CSNK2A2 (human)): 93%
kinase still bound, per cent of control (DAPK3 (human)): 67%
kinase still bound, per cent of control [1]: 84%
kinase still bound, per cent of control (EPHA3 (human)): 100%
kinase still bound, per cent of control (FGFR1 (human)): 86%
kinase still bound, per cent of control [2]: 85%
kinase still bound, per cent of control (GRK1 (human)): 91%
kinase still bound, per cent of control (GSK3A (human)): 100%
kinase still bound, per cent of control (INSR (human)): 84%
kinase still bound, per cent of control (KIT (human)): 100%
kinase still bound, per cent of control (MAK (human)): 72%
kinase still bound, per cent of control (MAP3K13 (human)): 100%
kinase still bound, per cent of control (MAP3K15 (human)): 69%
kinase still bound, per cent of control (MAP3K2 (human)): 97%
kinase still bound, per cent of control (MAP3K5 (human)): 100%
kinase still bound, per cent of control (MAPK14 (human)): 87%
kinase still bound, per cent of control (MAPK7 (human)): 0.05%
kinase still bound, per cent of control (MAPK8 (human)): 95%
kinase still bound, per cent of control (MST1R (human)): 98%
kinase still bound, per cent of control (MTOR (human)): 97%
kinase still bound, per cent of control (MYLK2 (human)): 98%
kinase still bound, per cent of control (NUAK2 (human)): 47%
kinase still bound, per cent of control (PRKD2 (human)): 59%
kinase still bound, per cent of control (PRKD3 (human)): 42%
kinase still bound, per cent of control (PRKX (human)): 99%
kinase still bound, per cent of control (PTK2B (human)): 78%
kinase still bound, per cent of control (RPS6KA4 KD1 (human)): 100%
kinase still bound, per cent of control (RPS6KB1 (human)): 100%
kinase still bound, per cent of control (SRPK2 (human)): 100%
kinase still bound, per cent of control (STK11 (human)): 96%
kinase still bound, per cent of control (STK33 (human)): 10%
kinase still bound, per cent of control (STK38 (human)): 96%
kinase still bound, per cent of control (STK38L (human)): 100%
kinase still bound, per cent of control [3]: 100%
kinase still bound, per cent of control (VRK2 (human)): 99%
kinase still bound, per cent of control (YSK4 (human)): 99%
